In article PMC10892409, “Exploring Ocimum basilicum’s Secondary Metabolites: Inhibition and Molecular Docking against Rhynchophorus ferrugineus for Optimal Action” (Plants, 2024):
In brackets after ≈: the same amount, converted by molar mass. Several values for one entry are separate records, joined by “and”; a condition that tells them apart may be missing. Identical values can stand only once.

Tests used:
ALPs [1] = test: In vivo ALP inhibition in treated fourth-instar larvae; design: species or system Rhynchophorus ferrugineus; details: fourth-instar larvae treated 24 h
Experimental: (§1) Activities of ACPs and ALPs were evaluated using a modified version of the Asakura technique. The ACP test required incubating 100 μL of crude enzyme in a buffer of 650 μL of sodium acetate (pH: 5.0; 50 mM with ACPs) or 250 μL of Tris–HCl (at 50 mM; pH: 8.0 with ALPs) and p-nitrophenyl phosphate (5.5 mM). For 30 min; the various mixes were kept at 37 °C for incubation. Thereafter, 500 μL of NaOH (0.5 N) stopped the reaction. Using an ELISA plate reader, we determined the mixture’s 415 nm absorbance value (Multiskan SkyHigh Microplate Spectrophotometer). The ACP- and ALP-specific activity was estimated as OD 415/mg protein·h.
(§2) Each enzyme’s in vivo impact was measured after treating larvae with an extract or pure chemicals. An inhibitor-free test combination served as a negative control. We determined the absorbance of the enzymes throughout a spectrum of wavelengths using a rapid reader for ELISA plates (Multiskan SkyHigh Microplate Spectrophotometer). Extracts and pure chemicals were used to treat R. ferrugineus larvae at previous serial concentrations, and their AChE, ACP, ALP, and GABA-T activity was tested in vivo using the methods outlined above. Larvae spent a day on leaf disks treated with chemicals or extract.

[2] = tested on: fourth-instar larvae of R. ferrugineus; test: Topical application (contact) to fourth-instar larvae (probit LD50); type: in vivo, Rhynchophorus ferrugineus; details: after 1 day of treatment, 95% confidence limits in brackets
Experimental: (§3) Over the course of 40 days, an O. basilicum cell suspension was cultivated in this investigation, and then the extract was obtained. […] Long segments of sugarcane stem were employed in the insect breeding lab at King Faisal University’s Research and Training Center to raise adult R. ferrugineus larvae. For this experiment, we used a topical application technique with larvae stored at 4 °C for five minutes to test the extract’s activity. Using a hand-operated micro-applicator (Burkard Manufacturing Co., Ltd., Hertfordshire, UK, collected using a […] micro-syringe), extracts at escalating ratios (10 µL) were injected into the dorsal surface of the larvae (Ito Corp.; MS-N50, Shizuoka, Japan). Five larvae per box in a series of three replicates were fed on sugarcane stem pieces measuring 10 cm in length. The LD50 was calculated by measuring the percentage of dead larvae at 24, 48, 72, and 96 h following a topical application. The antifeedant impact was determined in adults by giving them 10 cm sugarcane stem segments cut in half longitudinally. Long strips of sugarcane stem (32 cm^2) were immersed in the previous serial extract and compound concentration (10 mL) for ten seconds before they were dried in ambient air using a plastic box. Each box included a new pair of larvae (a male and a female). Ten sets of each treatment were performed. Data on how well the subjects ate were evaluated at 24, 48, 72, and 96 h.
(§4) The tissue culture parameters were calculated quantitatively from three independent sets of samples, and the mean SD was used to describe the findings. Toxicity parameters were determined quantitatively using a 10-replicate sample, and means and standard deviations were used to present the data. The median dosage obtained from a dose–response regression was used to calculate the LC50 value. By analyzing the comparative growth rate vs. the crude extract logarithm using least squares regression, the range of LC50 was calculated with 95% confidence. A simple variance study was performed on the increased weight and enzymatic activity data (ANOVA). The distinction between the means was accomplished using the Student–Newman–Keuls (SNK) test. Additionally, SPSS version 25 was used to find p < 0.05 significant deviations from the mean.

AChE [3] = test: In vivo AChE inhibition in treated fourth-instar larvae; design: species or system Rhynchophorus ferrugineus; details: fourth-instar larvae treated 24 h
Experimental: (§5) The enzyme AChE was assessed using a substrate of acetylthiocholine iodide and evaluated using 5,5′-dithiobis [2-nitrbenzoic acid] (DTNB), according to [94]. Each well contained a sodium phosphate buffer (140 µL) (pH: 8.0; 100 mM), DTNB (10 µL), extract (20 µL)/components at 1, 10, 50, 100, and 1000 µg/mL in DMSO and underwent 15 min of incubation at 25 °C. Acetylthiocholine (ATCh) was added to start the reaction (10 µL). The ATCh enzymatic hydrolysis produced a 5-thio-2-nitrobenzoate anion as a color (yellow) that was detected by measuring its wavelength, i.e., 412 nm, thereby allowing the researchers to track the rate of ATCh hydrolysis (15 min). Each response was performed three times on a microplate and examined using an ELISA plate reader to determine the 412 nm absorbance of the combination (Multiskan SkyHigh Microplate Spectrophotometer). The AChE-specific activity was measured as OD412/mg protein.h. based on observing the effect of raising the quantities of all of these compounds during the tests on the inhibition results, and the inhibitory concentration (IC50) was calculated. Then, a computer algorithm was used to determine the IC50 values (Version 9.01 of GraphPad Prism by Inc., 2020, San Diego, CA, USA).
as §2

ACPs [4] = test: In vitro ACP inhibition, larval homogenate; type: biochemical, Rhynchophorus ferrugineus; details: fourth-instar larvae preparation
Experimental: (§6) The R. ferrugineus were homogenized larvae in a buffer (sodium phosphate, 40 mM, and pH 7.4); then, sodium chloride (10 mM dissolved in 1% (w/v) triton X-100) was added. During centrifugation (Sigma 3–30 KS), the homogenate was chilled to 4 °C and spun at a speed of 5000 rpm (20 min). The supernatant was either immediately put into action for an enzymatic test or frozen and kept at […] for later use. Each test was repeated three times. The protein content was determined using the same protocol employed by Lowry with modification using protein extract (100 µL) combined with an alkaline copper solution and a Folin–Ciocalteu phenol reagent (2 mL and 200 µL, respectively). The intensity of the resulting blue hue was evaluated during 30 min of incubation at 25 °C. Using an ELISA plate reader and a BSA standard curve, we could calculate the protein concentration by analyzing the absorbance at 600 nm (Multiskan SkyHigh Microplate Spectrophotometer, Thermo Fisher Scientific, Waltham, MA, USA).
as §1

R. ferrugineus adults = test: Antifeedant/insecticidal test on adults with treated sugarcane stem (probit LC50); type: in vivo, Rhynchophorus ferrugineus; details: Rhynchophorus ferrugineus, 24 h, after 1 day of treatment, 95% confidence limits in brackets, read-out: LC50
Experimental: as §3, §4

ACPs [5] = test: In vivo ACP inhibition in treated fourth-instar larvae; design: species or system Rhynchophorus ferrugineus; details: fourth-instar larvae treated 24 h
Experimental: as §1, §2

AChE [6] = test: In vitro AChE inhibition, larval homogenate (Ellman); type: biochemical, Rhynchophorus ferrugineus; details: fourth-instar larvae preparation
Experimental: as §6, §5

ALPs [7] = test: In vitro ALP inhibition, larval homogenate; type: biochemical, Rhynchophorus ferrugineus; details: for IC50 ALPs in vitro: fourth-instar larvae preparation
Experimental: as §6, §1

[8] = listed as quercetin-3-O-rutinoside

Molecule: O=C(/C=C/c1ccc(O)c(O)c1)O[C@H](Cc1ccc(O)c(O)c1)C(=O)O [Rosmarinic acid]
- IC50 ALPs in vivo (ALPs [1]): 256.7 µg/mL
- LD50 [2]: 11.8 (11.2–12.5) µg/Larvae
- IC50 AChE in vivo (AChE [3]): 235.1 µg/mL and 235 ± 1.14 µg/mL
- IC50 ACPs in vitro (ACPs [4]): 139.7 µg/mL (≈ 388 µM)
- LC50 (R. ferrugineus adults): 1430 µg/mL (≈ 3960 µM)
- IC50 ACPs in vivo (ACPs [5]): < 330 µg/mL and 258.7 µg/mL
- IC50 AChE in vitro (AChE [6]): 119.2 µg/mL and 119 ± 1.14 µg/mL
- IC50 ALP in vitro (ALPs [7]): 150 µg/mL (≈ 415 µM)
- IC50 ALPs in vitro (ALPs [7]): < 200 µg/mL

Molecule: C[C@@H]1O[C@@H](OC[C@H]2O[C@@H](Oc3c(-c4ccc(O)c(O)c4)oc4cc(O)cc(O)c4c3=O)[C@H](O)[C@@H](O)[C@@H]2O)[C@H](O)[C@H](O)[C@H]1O [Quercetin-3-O-rutinoside]
- LD50 [2]: 16.2 (15.3–17.2) µg/Larvae
- LD50 [2, 8]: 16.2 µg/Larvae
- IC50 AChE in vivo (AChE [3]): 348 ± 0.87 µg/mL
- IC50 AChE in vivo (AChE [3]; [8]): 347.6 µg/mL
- IC50 ACPs in vitro (ACPs [4]; [8]): 104.8 µg/mL (≈ 172 µM)
- LC50 (R. ferrugineus adults): 1170 µg/mL (≈ 1910 µM)
- IC50 ACPs in vivo (ACPs [5]; [8]): 298.4 µg/mL
- IC50 AChE in vitro (AChE [6]): 98 ± 0.87 µg/mL
- IC50 AChE in vitro (AChE [6]; [8]): 98.4 µg/mL
- IC50 ALP in vitro (ALPs [7]): 102 µg/mL (≈ 168 µM)
- IC50 ALPs in vitro (ALPs [7]; [8]): < 200 µg/mL

Molecule: C[C@H]1[C@H](C)CC[C@]2(C(=O)O)CC[C@]3(C)C(=CC[C@@H]4[C@@]5(C)CC[C@H](O)C(C)(C)[C@@H]5CC[C@]43C)[C@H]12 [Ursolic acid]
- IC50 ALPs in vivo (ALPs [1]; listed as ursolic acid): 476.9 µg/mL
- LD50 [2]: 14.9 (13.6–15.4) µg/Larvae
- LD50 ([2]; listed as ursolic acid): 14.9 µg/Larvae
- IC50 AChE in vivo (AChE [3]): 458 ± 1.52 µg/mL
- IC50 AChE in vivo (AChE [3]; listed as ursolic acid): 457.8 µg/mL
- IC50 ACPs in vitro (ACPs [4]; listed as ursolic acid): 167.8 µg/mL (≈ 367 µM)
- LC50 (R. ferrugineus adults): 1120 µg/mL (≈ 2450 µM)
- IC50 ACPs in vivo (ACPs [5]; listed as ursolic acid): 392.4 µg/mL
- IC50 AChE in vitro (AChE [6]): 170 ± 1.52 µg/mL
- IC50 AChE in vitro (AChE [6]; listed as ursolic acid): 169.5 µg/mL
- IC50 ALP in vitro (ALPs [7]): 141 µg/mL (≈ 309 µM)
- IC50 ALPs in vitro (ALPs [7]; listed as ursolic acid): < 200 µg/mL

Molecule: O=C(/C=C/c1ccc(O)c(O)c1)O[C@@H](C(=O)O)[C@@H](O)C(=O)O [Caftaric acid]
- LD50 [2]: 18.79 (17.82–19.93) µg/Larvae
- LD50 ([2]; listed as caftaric acid): 18.79 µg/Larvae
- IC50 AChE in vivo (AChE [3]): 429 ± 1.49 µg/mL
- IC50 AChE in vivo (AChE [3]; listed as caftaric acid): 429.2 µg/mL
- LC50 (R. ferrugineus adults): 1490 µg/mL (≈ 4780 µM)
- IC50 AChE in vitro (AChE [6]): 156 ± 1.49 µg/mL
- IC50 AChE in vitro (AChE [6]; listed as caftaric acid): 156.4 µg/mL
- IC50 ALP in vitro (ALPs [7]): 158 µg/mL (≈ 505 µM)
- IC50 ALPs in vitro (ALPs [7]; listed as caftaric acid): < 200 µg/mL

Molecule: Chicoric acid
- IC50 ALPs in vivo (ALPs [1]; listed as chicoric acid): 237.2 µg/mL
- LD50 [2]: 9.45 (9.07–10.45) µg/Larvae
- LD50 ([2]; listed as chicoric acid): 9.45 µg/Larvae
- IC50 AChE in vivo (AChE [3]): 213 ± 1.07 µg/mL
- IC50 AChE in vivo (AChE [3]; listed as chicoric acid): 211.6 µg/mL
- IC50 ACPs in vitro (ACPs [4]; listed as chicoric acid): 101.7 µg/mL
- IC50 ACPs in vivo (ACPs [5]; listed as chicoric acid): < 330 µg/mL and 204.8 µg/mL
- IC50 AChE in vitro (AChE [6]): 108 ± 1.07 µg/mL
- IC50 AChE in vitro (AChE [6]; listed as chicoric acid): 107.5 µg/mL
- IC50 ALPs in vitro (ALPs [7]; listed as chicoric acid): < 200 µg/mL
